Results from ChEMBL document CHEMBL4725249, “Quinazoline Based HSP90 Inhibitors: Synthesis, Modeling Study and ADME Calculations Towards Breast Cancer Targeting” (Bioorg Med Chem Lett, 2020).

Legend:
MCF7 [1] = test: Antiproliferative activity against human MCF7 cells assessed as reduction in cell viability after 48 hrs by MTT assay; format: functional, cell-based; conditions: MCF7, 48 h
HCT-116 = test: cells; conditions: Homo sapiens, HCT-116, 48 h
Description: Antiproliferative activity against human HCT116 cells assessed as reduction in cell viability after 48 hrs by MTT assay

WI-38 = test: cells; conditions: Homo sapiens, WI-38, 48 h
Description: Cytotoxicity against human WI-38 cells assessed as reduction in cell viability after 48 hrs by MTT assay

HeLa = test: Antiproliferative activity against human HeLa cells assessed as reduction in cell viability after 48 hrs by MTT assay; format: functional, cell-based
Heat shock protein HSP90 = Heat shock protein HSP90 (Homo sapiens, UniProt P07900+P08238); test: Inhibition of HSP90 ATPase activity (unknown origin); format: protein assay
MCF7 [2] = test: Induction of cell cycle arrest in human MCF7 cells assessed as debris content at 2 uM after 24 hrs by PI-staining based flow cytometry (reference value: 2.09%); format: functional
MCF7 [3] = test: Induction of apoptosis in human MCF7 cells assessed as necrotic cells at 2 uM after 24 hrs by Annexin V-FITC/propidium iodide staining based flow cytometric analysis (reference value: 0.43%); format: functional
MCF7 [4] = test: Induction of cell cycle arrest in human MCF7 cells assessed as cell accumulation at G2/M phase at 2 uM after 24 hrs by PI-staining based flow cytometry (reference value: 10.84%); format: functional
MCF7 [5] = test: Induction of cell cycle arrest in human MCF7 cells assessed as cell aggregates at 2 uM after 24 hrs by PI-staining based flow cytometry (reference value: 2.28%); format: functional
MCF7 [6] = test: Induction of cell cycle arrest in human MCF7 cells assessed as cell accumulation at G0/G1 phase at 2 uM after 24 hrs by PI-staining based flow cytometry (reference value: 53.72%); format: functional
MCF7 [7] = test: Induction of cell cycle arrest in human MCF7 cells assessed as cell accumulation at Pre-G1 phase at 2 uM after 24 hrs by PI-staining based flow cytometry (reference value: 1.64%); format: functional
MCF7 [8] = test: Induction of apoptosis in human MCF7 cells assessed as early apoptotic cells at 2 uM after 24 hrs by Annexin V-FITC/propidium iodide staining based flow cytometric analysis (reference value: 0.82%); format: functional
MCF7 [9] = test: Induction of apoptosis in human MCF7 cells assessed as late apoptotic cells at 2 uM after 24 hrs by Annexin V-FITC/propidium iodide staining based flow cytometric analysis (reference value: 0.39%); format: functional
MCF7 [10] = test: Induction of cell cycle arrest in human MCF7 cells assessed as cell accumulation at S phase at 2 uM after 24 hrs by PI-staining based flow cytometry (reference value: 35.44%); format: functional

Compound	IC50 (MCF7 [1]) [µM]	IC50 (HCT-116) [µM]	IC50 (WI-38) [µM]	IC50 (HeLa) [µM]	further results
O=c1c2ccccc2nc(SCCCCl)n1-c1ccccc1	12.6	23.2	36.7	16.7	
CCOc1ccccc1N1CCN(C(=S)SCCCSc2nc3ccccc3c(=O)n2-c2ccccc2)CC1	9.48	18.1	33.3	20.6	IC50 (Heat shock protein HSP90): 3.41 µM
O=c1c2ccccc2nc(SCCCSC(=S)N2CCN(C3CCCCC3)CC2)n1-c1ccccc1	45.9	73.8	> 100	64.5	
O=c1c2ccccc2nc(SCCCSC(=S)N2CCCCC2)n1-c1ccccc1	38.5	63.4	> 100	50.3	
CC(C)(C)OC(=O)N1CCN(C(=O)CSc2nc3ccccc3c(=O)n2-c2ccccc2)CC1	25.9	48.3	62.6	34.5	
O=C(CSc1nc2ccccc2c(=O)n1-c1ccccc1)N1CCN(C2CCCCC2)CC1	35.9	60.9	78.4	53.6	
O=C(CSc1nc2ccccc2c(=O)n1-c1ccccc1)N1CCOCC1	11.7	19.8	16	18.2	IC50 (Heat shock protein HSP90): 3.21 µM
O=C(CSc1nc2ccccc2c(=O)n1-c1ccccc1)N1CCN(c2ncccn2)CC1	47.5	78.7	94.5	76.9	
O=C(CSc1nc2ccccc2c(=O)n1-c1ccccc1)N1CCCCC1	13.8	25.3	65	22.5	
CC(=O)N1CCN(C(=S)SCCCSc2nc3ccccc3c(=O)n2-c2ccccc2)CC1	22.4	37	> 100	54.9	
C=CCN1CCN(C(=O)CSc2nc3ccccc3c(=O)n2-c2ccccc2)CC1	8.56	15.7	12.2	13.4	Activity (MCF7 [2]): 2.63%; IC50 (Heat shock protein HSP90): 1.58 µM; Activity (MCF7 [3]): 2.31%; Activity (MCF7 [4]): 38.89%; Activity (MCF7 [5]): 2.21%; Activity (MCF7 [6]): 31.59%; Activity (MCF7 [7]): 22.42%; Activity (MCF7 [8]): 4.94%; Activity (MCF7 [9]): 15.17%; Activity (MCF7 [10]): 29.52%
CC(=O)N1CCN(C(=O)CSc2nc3ccccc3c(=O)n2-c2ccccc2)CC1	7.35	10.3	16	12	IC50 (Heat shock protein HSP90): 14.36 µM
C=CCN1CCN(C(=S)SCCCSc2nc3ccccc3c(=O)n2-c2ccccc2)CC1	17.8	32.1	82.5	28.7	
O=c1c2ccccc2nc(SCCCSC(=S)N2CCN(c3ncccn3)CC2)n1-c1ccccc1	49.3	79.6	> 100	74.4	
CCN1CCN(C(=S)SCCCSc2nc3ccccc3c(=O)n2-c2ccccc2)CC1	64.3	88	> 100	79.6	
CN1CCN(C(=S)SCCCSc2nc3ccccc3c(=O)n2-c2ccccc2)CC1	19.3	32.8	70.5	33.3	
O=c1c2ccccc2nc(SCCCSC(=S)N2CCN(c3ccccc3)CC2)n1-c1ccccc1	15.5	27.6	29.8	26.1	
CCN1CCN(C(=O)CSc2nc3ccccc3c(=O)n2-c2ccccc2)CC1	23.9	44.3	82	37.5	
